Blank lines part the entries; values can stand above or below the molecule they belong to.
Columns and labels:
Assay type in all cases: cell-based
[1] = tested on: Enterobacter intermedius 05 04 110; test: pH variation detection on modified chromID Coli medium (Example 6); parameters: Coloration strength: key to the marks not given beside the values; details: 50 mg/l, 24 h 37° C.
Procedure: (§1) The media were incubated for 24 hours at 37° C., then the spots formed were examined visually.

[2] = tested on: Shigella flexneri 92 11 059; test: as above; parameters: Coloration strength: key to the marks not given beside the values; details: 50 mg/l, 24 h 37° C.
Procedure: as §1

[3] = tested on: Rahnella aquatilis 05 04 103; test: as above; parameters: Coloration strength: key to the marks not given beside the values; details: 50 mg/l, 24 h 37° C.
Procedure: as §1

[4] = tested on: Buttiauxella agrestis 05 04 166; test: as above; parameters: Coloration strength: key to the marks not given beside the values; details: 50 mg/l, 24 h 37° C.
Procedure: as §1

[5] = tested on: Morganella morganii ssp morganii 97 08 046; test: as above; parameters: Coloration strength: key to the marks not given beside the values; details: 50 mg/l, 24 h 37° C.
Procedure: as §1

[6] = tested on: Citrobacter freundii 05 04 165; test: as above; parameters: Coloration strength: key to the marks not given beside the values; details: 50 mg/l, 24 h 37° C.
Procedure: as §1

Salmonella spp 93 03 001 = test: as above; parameters: Coloration strength: key to the marks not given beside the values; details: 50 mg/l, 24 h 37° C.
Procedure: as §1

[7] = tested on: Raoultella ornithinolytica 05 04 140; test: as above; parameters: Coloration strength: key to the marks not given beside the values; details: 50 mg/l, 24 h 37° C.
Procedure: as §1

[8] = tested on: Enterobacter amnigenus 05 06 046; test: as above; parameters: Coloration strength: key to the marks not given beside the values; details: 50 mg/l, 24 h 37° C.
Procedure: as §1

[9] = tested on: Escherichia vulneris 85 06 777; test: as above; parameters: Coloration strength: key to the marks not given beside the values; details: 50 mg/l, 24 h 37° C.
Procedure: as §1

Escherichia coli 0002005 = test: Peptidase detection on Columbia medium (Example 5); details: 75 mg/l, 48 h 37° C.
Procedure: (§2) After homogenization, the media were distributed into Petri dishes 55 mm in diameter. A medium acting as a growth control (Columbia) and denoted C was also poured.
(§3) Twenty-two strains of microorganisms were inoculated with a 10 μl calibrated loop according to the three-quadrant streaking method using bacterial suspensions at 0.5 McFarland.

[10] = tested on: Enterobacter cloacae 0604040; test: Peptidase detection on Columbia medium (Example 5); details: 75 mg/l, 48 h 37° C.
Procedure: as §2, §3

[11] = tested on: Providencia rettgeri 0706064; test: Peptidase detection on Columbia medium (Example 5); details: 75 mg/l, 48 h 37° C.
Procedure: as §2, §3

[12] = tested on: Bacillus subtilis 0204038; test: Peptidase detection on Columbia medium (Example 5); details: 75 mg/l, 48 h 37° C.
Procedure: as §2, §3

[13] = tested on: Klebsiella pneumoniae 0008009; test: Peptidase detection on Columbia medium (Example 5); details: 75 mg/l, 48 h 37° C.
Procedure: as §2, §3

[14] = tested on: Pseudomonas aeruginosa 0001001; test: Peptidase detection on Columbia medium (Example 5); details: 75 mg/l, 48 h 37° C.
Procedure: as §2, §3

[15] = tested on: Staphylococcus aureus 7811049; test: Peptidase detection on Columbia medium (Example 5); details: 75 mg/l, 48 h 37° C.
Procedure: as §2, §3

[16] = tested on: Acinetobacter baumannii 0604029; test: Peptidase detection on Columbia medium (Example 5); details: 75 mg/l, 48 h 37° C.
Procedure: as §2, §3

[17] = tested on: Enterococcus faecium 0610021; test: Peptidase detection on Columbia medium (Example 5); details: 75 mg/l, 48 h 37° C.
Procedure: as §2, §3

MRSA 0303033 = test: Peptidase detection on Columbia medium (Example 5); details: 75 mg/l, 48 h 37° C.
Procedure: as §2, §3

[18] = tested on: Listeria monocytogenes 8812049; test: Peptidase detection on Columbia medium (Example 5); details: 75 mg/l, 48 h 37° C.
Procedure: as §2, §3

[19] = tested on: Salmonella ser. Typhimurium 0801029; test: Peptidase detection on Columbia medium (Example 5); details: 75 mg/l, 48 h 37° C.
Procedure: as §2, §3

[20] = tested on: Serratia marcescens 7303004; test: Peptidase detection on Columbia medium (Example 5); details: 75 mg/l, 48 h 37° C.
Procedure: as §2, §3

[21] = tested on: Streptococcus pyogenes 9806380; test: Peptidase detection on Columbia medium (Example 5); details: 75 mg/l, 48 h 37° C.
Procedure: as §2, §3

[22] = tested on: Staphylococcus epidermidis NCTC 11 047; test: Peptidase detection on Columbia medium (Example 2); parameters: key to Growth: NG: No growth; 0.5: weak growth; 1: moderate growth; 2: good growth; key to Fluo. / Color / Color post-acid.: —: no color; details: 40 mg in 400 ml Columbia; 24 h 37° C.
Procedure: (§4) The 6 media were distributed into Petri dishes 90 mm in diameter, in a proportion of 20 ml per dish.
(§5) Seventeen strains of microorganisms stemming from collections and belonging to various species of bacteria and yeasts are inoculated in spots of approximately 10 000 colony-forming units.
(§6) The media are incubated for 24 hours at 37° C., and then the colonies formed are examined visually, with or without the addition of acid and under a UV lamp at 365 nm.

[23] = tested on: Providencia rettgeri NCTC 7 475; test: Peptidase detection on Columbia medium (Example 2); parameters: key to Growth: NG: No growth; 0.5: weak growth; 1: moderate growth; 2: good growth; details: 40 mg in 400 ml Columbia; 24 h 37° C.
Procedure: as §4, §5, §6

[24] = tested on: Staphylococcus aureus NCTC 11 939; test: Peptidase detection on Columbia medium (Example 2); parameters: key to Growth: NG: No growth; 0.5: weak growth; 1: moderate growth; 2: good growth; key to Fluo. / Color / Color post-acid.: —: no color; details: 40 mg in 400 ml Columbia; 24 h 37° C.
Procedure: as §4, §5, §6

SMILES: Nc1ccc(C=Cc2ccnc3ccccc23)cc1
Color [1]: Orange
Coloration strength [1]: ++
Growth ([1]; control C: ++): +
Color [2]: Orange
Coloration strength [2]: ++
Growth ([2]; control C: ++): ++
Color [3]: Orange
Coloration strength [3]: ++
Growth ([3]; control C: ++): ++
Color [4]: Orange
Coloration strength [4]: ++
Growth ([4]; control C: ++): ++
Color [5]: Orange
Coloration strength [5]: ++
Growth ([5]; control C: ++): ++
Color [6]: Orange
Coloration strength [6]: ++
Growth ([6]; control C: ++): ++
Color (Salmonella spp 93 03 001): Orange
Coloration strength (Salmonella spp 93 03 001): ++
Growth (Salmonella spp 93 03 001; control C: ++): ++
Color [7]: Orange
Coloration strength [7]: ++
Growth ([7]; control C: ++): ++
Color [8]: Orange
Coloration strength [8]: ++
Growth ([8]; control C: ++): ++
Color [9]: Orange
Coloration strength [9]: ++
Growth ([9]; control C: ++): ++

Color [10]: orange
Coloration strength [10]: +
Growth ([10]; control C: ++): ++
Color [12]: orange
Coloration strength [12]: +
Growth ([12]; control C: ++): ++
Color [13]: orange
Coloration strength [13]: ++
Growth ([13]; control C: ++): ++
Color [14]: orange
Coloration strength [14]: ++
Growth ([14]; control C: ++): ++
Color [16]: orange
Coloration strength [16]: ++
Growth ([16]; control C: ++): ++
Color [17]: −
Coloration strength [17]: −
Growth ([17]; control C: +): +
Color (MRSA 0303033): orange
Coloration strength (MRSA 0303033): ++
Growth (MRSA 0303033; control C: ++): ++
Color [18]: orange
Coloration strength [18]: ++
Growth ([18]; control C: +): +
Color [19]: −
Coloration strength [19]: −
Growth ([19]; control C: ++): ++
Color [20]: orange
Coloration strength [20]: ++
Growth ([20]; control C: ++): ++
Color [21]: orange
Coloration strength [21]: +
Growth ([21]; control C: +): +
SMILES: C[C@H](N)C(=O)Nc1ccc(C=Cc2cc[n+](C)c3ccccc23)cc1.Cl.[Cl-] [L-alanyl-4-(4′-amidostyryl)-N-methylquinolinium (dichloride)]
Color (Escherichia coli 0002005): orange
Coloration strength (Escherichia coli 0002005): ++
Growth (Escherichia coli 0002005; control C: ++): ++
Color [11]: orange
Coloration strength [11]: ++
Growth ([11]; control C: ++): ++
Color [15]: orange
Coloration strength [15]: +
Growth ([15]; control C: ++): ++

SMILES: C[C@H](N)C(=O)N[C@@H](C)C(=O)N[C@@H](C)C(=O)Nc1ccc(C=Cc2cc[n+](C)c3ccccc23)cc1.Cl.[Cl-] [Tri-Ala-ASQM^+, L-alanyl-L-alanyl-L-alanyl-4-(4′-amidostyryl)-N-methylquinolinium (dichloride)]
Color [22]: —
Growth [22]: 2
Growth [23]: 2
Color [24]: —
Growth [24]: 2

— patent US8592174B2, “Peptidase substrates” (bioMérieux, S.A., priority 2009, dated 2013)
